This is an account of results in PMC7497443, “Imaging CXCR4 Expression with Iodinated and Brominated Cyclam Derivatives” (Molecular Imaging and Biology, 2020).

For data set [1], the system named is HIV. The note with it: cited from earlier work.
Data set [2] deals with T1, CXCR4 (Homo sapiens, UniProt P61073).
T1 construct: host or cells: U87 glioma cells transduced with CXCR4 (U87-CXCR4)
The experiment in a line: Competitive binding assay with U87-CXCR4 cells and 67Ga-Pentixafor. The following applies: U87-CXCR4 cells, 67Ga-Pentixafor 4.0 nM, 37 °C, 2 h, triplicate; read-out: IC50 affinity. As to the method: In order to determine the affinity of the halogenated cyclam derivatives, competitive binding studies were performed with U87-CXCR4 cells using ^67Ga-Pentixafor (CXCR4 receptor ligand). Briefly, triplicate samples containing 0.5 × 10^6 cells pre-seeded in 6-well plate, about 1.8 kBq of ^67Ga-Pentixafor (4.0 nM) and 0.001–1000 nM of the tested ligands (total volume 1.0 ml) were incubated at 37 °C for 2 h. After incubation, the cells were washed with 2 × 1 ml of ice-cold tris-buffered saline (pH 7.4) and then collected for measurement with a WIZARD 1480 gamma counter (PerkinElmer, Waltham, MA). The IC50 values were estimated using a least squares fitting routine (GraphPad Prism 6, San Diego, CA, USA).
Competitive binding assays were performed using U87-CXCR4 cells (expressing high levels of CXCR4) and ^67Ga-Pentixafor [31, 32] as a radioligand.

For data set [3], the system named is U87-CXCR4 and U87-WT glioma cells. As to the kind of experiment: Uptake of radiohalogenated cyclam derivatives in glioma cells. The note with it: 2.0 h incubation at 37 °C. The data set is classed as cell-based, human. As to the method: (§1) Glioma (U87-CXCR4 and U87-WT) and lung cancer (H82 and H69) cell lines with different level of CXCR4 expression were utilized for cell uptakes of all synthesized six radiotracers. Each cell line (0.25 × 10^6 per well) was seeded into 6-well plates, and on the next day, triplicate samples containing approximately 1.85 kBq of *Br or *I-labeled ligand were added and kept incubation at 37 °C for 2.0 h. After washing twice with PBS (4 °C) on the ice-bed, the cells were harvested for measurement with the gamma counter.
(§2) The uptake of 6 different radiolabeled cyclam derivatives was studied in 4 glioma and lung cancer cell lines (Fig. 2). The cell lines expressed both “high” (U87-CXCR4 and H69) and “low” (U87-WT and H82) levels of CXCR4, which were confirmed with IHC staining of CXCR4. […] These promising results from in vitro studies supported proceeding to in vivo PET imaging of CXCR4 expression in tumor-bearing animal models, using the newly developed radiolabeled cyclam derivatives.

Data set [4] concerns H69 and H82 lung cancer cells. As to the kind of experiment: Uptake of radiohalogenated cyclam derivatives in lung cancer cells. The note with it: 2.0 h incubation at 37 °C. It counts as cell-based, human. On the procedure: as §1, §2
Data set [5] has as its system U87-CXCR4, U87-WT, H69 and H82 s.c. tumors. The experiment in a line: Biodistribution in s.c. tumor-bearing animals 24 h after i.v. injection. The note with it: n = 3. It counts as in vivo, mice. On the procedure: All animal experiments were approved by the Institutional Animal Care and Utilization Committee of MSKCC. Eight human PCNSL xenograft models established at MSK (CG) were available for study. Female Athymic Nude Foxn (6–8 weeks old; ENVIGO) was used for subcutaneous implantation. Cancer cells, including U87-CXCR4, U87-WT, H69, and H82 (5 × 10^6 cells suspended in […] of cell culture medium/Matrigel [BD Bioscience] [v/v 5 1/1]), were inoculated to the shoulder/flank area of the animal. Twenty to 30 days after the inoculation, imaging and tissue sampling were performed when the tumor sizes were between 100 and 350 mm^3. For orthotopic models, U87-CXCR4 cells (1 × 10^5 cells suspended in 10 μl of cell culture medium) in 30-gauge needle were injected into the right frontal cortex (stereotactic coordinates: bregma + 1.7 mm (anterior), lateral − 0.5 mm (right), and at a depth of 2.5 mm). Individuals performing implantation and stereotactic injections were blinded to the experimental design. […]
After the last PET imaging time point, the animals were euthanized for tissue dissection. […] The total injected radioactivity per animal was determined from the measured radioactivity in an aliquot of the injectate. Data were expressed as percent of injected dose per gram of tissue (%ID/g).

Data set [6] deals with U87-CXCR4 s.c. tumors. It counts as in vivo. The note with it: for accumulation in U87-CXCR4 s.c. tumors (in words): following i.v. injection; for in vivo de-halogenation / stability on PET imaging: thyroid radioactivity on PET images. As to the method:
All animal experiments were approved by the Institutional Animal Care and Utilization Committee of MSKCC. Eight human PCNSL xenograft models established at MSK (CG) were available for study. Female Athymic Nude Foxn (6–8 weeks old; ENVIGO) was used for subcutaneous implantation. Cancer cells, including U87-CXCR4, U87-WT, H69, and H82 (5 × 10^6 cells suspended in […] of cell culture medium/Matrigel [BD Bioscience] [v/v 5 1/1]), were inoculated to the shoulder/flank area of the animal. Twenty to 30 days after the inoculation, imaging and tissue sampling were performed when the tumor sizes were between 100 and 350 mm^3. For orthotopic models, U87-CXCR4 cells (1 × 10^5 cells suspended in 10 μl of cell culture medium) in 30-gauge needle were injected into the right frontal cortex (stereotactic coordinates: bregma + 1.7 mm (anterior), lateral − 0.5 mm (right), and at a depth of 2.5 mm). Individuals performing implantation and stereotactic injections were blinded to the experimental design.
(§3) Animals were administrated 3.7–11.1 MBq of ^76Br- or ^124I-labeled ligands via tail vein or intraspinal injection under 2 % isoflurane anesthesia. At 1 h and 24 h after injection, PET/CT imaging (or PET imaging) was performed with an Inveon PET/CT system. The tumors were centered in the field of view, and the PET acquisition time was 10 min (or longer if needed, until 50 million events are recorded). The image data were normalized to correct for non-uniformity of response of the PET camera, dead-time count losses, positron branching ratio, and physical decay to the time of injection, but no attenuation, scatter, or partial-volume averaging correction was applied. The calibration factor of both PET scanner was measured with a mouse-size phantom composed of a cylinder uniformly filled with an aqueous solution of ^18F of known activity concentration. The acquired PET/CT (or PET) images were analyzed using Inveon Research Workplace v4.2 software (or ASIPro software). Region of interest (ROI) analysis of the acquired images was performed using ASIPro software (Siemens, Malvern, PA, USA), and the observed maximum pixel value (%ID/cc) was utilized to diminish partial volume effects of tumor. The sequential radioactivity measurements (% injected dose/cc) were plotted vs. time of acquisition.
The imaging and uptake of 6 different radiolabeled cyclam derivatives were studied in subcutaneous tumor-bearing animals (animals bearing either 2 glioma or 2 glioma plus 2 lung cancer tumors) (Fig. 4). […] Radioactivity continued to increase in the U87-CXCR4 tumors but was washed out from the U87 wt (non-CXCR4-exressing) control tumors, over 60 min. […] Biodistribution studies confirmed the imaging studies. Comparing three radiolabeled cyclam derivatives, ^76Br-HZ270-1 was accumulated most avidly by U87-CXCR4 tumors and had the lowest overall systemic organ levels at 24 h post i.v. injection (Table 3). Brain radioactivity was lowest of all organs sampled. Based on these studies, ^76Br-HZ270-1 was selected for imaging intracranial CXCR4-expressing tumors.

Data set [7] deals with intracranial U87-CXCR4 tumors. The experiment in a line: PET imaging of intracranial U87-CXCR4 xenografts. The data set is classed as in vivo, mice. The following applies: i.v. injection. As to the method: All animal experiments were approved by the Institutional Animal Care and Utilization Committee of MSKCC. Eight human PCNSL xenograft models established at MSK (CG) were available for study. Female Athymic Nude Foxn (6–8 weeks old; ENVIGO) was used for subcutaneous implantation. Cancer cells, including U87-CXCR4, U87-WT, H69, and H82 (5 × 10^6 cells suspended in […] of cell culture medium/Matrigel [BD Bioscience] [v/v 5 1/1]), were inoculated to the shoulder/flank area of the animal. Twenty to 30 days after the inoculation, imaging and tissue sampling were performed when the tumor sizes were between 100 and 350 mm^3. […]
Animals were administrated 3.7–11.1 MBq of ^76Br- or ^124I-labeled ligands via tail vein or intraspinal injection under 2 % isoflurane anesthesia. […] The tumors were centered in the field of view, and the PET acquisition time was 10 min (or longer if needed, until 50 million events are recorded). […] The calibration factor of both PET scanner was measured with a mouse-size phantom composed of a cylinder uniformly filled with an aqueous solution of ^18F of known activity concentration. The acquired PET/CT (or PET) images were analyzed using Inveon Research Workplace v4.2 software (or ASIPro software). […] The sequential radioactivity measurements (% injected dose/cc) were plotted vs. time of acquisition. […]

Data set [8] deals with intracranial PCNSL-15 CXCR4-expressing tumors. The experiment in a line: PET imaging and autoradiography of intracranial PCNSL-15 tumors. The data set is classed as in vivo, mice. On the procedure: as §3, with “acquisition. […]” for “acquisition.”

Entries after “also recorded” stand apart in the source; their conditions may differ. Where two headings read alike, the source gives them in different places.

T1 sequence (P61073 whole entry): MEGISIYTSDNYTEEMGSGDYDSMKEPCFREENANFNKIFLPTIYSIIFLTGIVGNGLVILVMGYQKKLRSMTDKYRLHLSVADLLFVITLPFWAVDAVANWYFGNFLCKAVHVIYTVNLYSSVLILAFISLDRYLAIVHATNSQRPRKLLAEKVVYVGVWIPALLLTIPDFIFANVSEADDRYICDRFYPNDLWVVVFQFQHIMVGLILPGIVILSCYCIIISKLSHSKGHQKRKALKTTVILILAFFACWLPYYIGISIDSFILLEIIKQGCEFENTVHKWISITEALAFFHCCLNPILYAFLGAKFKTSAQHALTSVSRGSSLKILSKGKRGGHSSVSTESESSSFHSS

Consider `c1cc(CN2CCCNCCNCCCNCC2)ccc1CN1CCCNCCNCCCNCC1` [AMD3100], for which, in data set [1], the “inhibited HIV infection, concentration range” value was 1 to 10 nM.

For `c1ccc(CNCc2ccc(CN3CCCNCCNCCCNCC3)cc2)nc1` [AMD3465, reference compound], the IC50 in data set [2] came to 15 ± 5.8 nM.

In the case of `Brc1cc(CN2CCCNCCNCCCNCC2)ccc1CN1CCCNCCNCCCNCC1` [HZ261], the IC50 in data set [2] was 9.47 ± 2.87 nM.

Regarding `Ic1cc(CN2CCCNCCNCCCNCC2)ccc1CN1CCCNCCNCCCNCC1` [HZ262], the IC50 in data set [2] was found to be 15.9 ± 0.4 nM.

Turning to `[76Br]c1cc(CNCc2ccccn2)ccc1CN1CCCNCCNCCCNCC1` [^76Br-HZ270-1], in data set [3], the U87-CXCR4/U87-wt uptake ratio amounted to 2.96 ± 0.67 and the “radiotracer accumulation in U87-CXCR4 vs U87-WT cells (in words)” value is reported as “highest”. Further, in data set [4], the H69/H82 uptake ratio amounted to 3.93 ± 0.74 and the “radiotracer accumulation in H69 vs H82 cells (in words)” value is given as “highest”. In addition, in data set [5], the “Biodistribution, Blood” value was 0.59 ± 0.12 %ID/g; the “Biodistribution, Bone” value is on record as 2.9 ± 0.5 %ID/g; the “Biodistribution, Brain” value was found to be 0.14 ± 0.04 %ID/g; the “Biodistribution, Heart” value is listed as 1.7 ± 0.3 %ID/g. Also, in data set [5], the “Biodistribution, Kidneys” value is 41.3 ± 24.1 %ID/g; the “Biodistribution, Liver” value amounted to 7.6 ± 1.3 %ID/g; the “Biodistribution, Spleen” value worked out at 2.1 ± 0.8 %ID/g; the “Biodistribution, U87 CXCR4 tumor” value is 9.5 ± 1.3 %ID/g. The “Biodistribution, U87 WT tumor” value in data set [5] is 1.6 ± 0.7 %ID/g. Also, the “accumulation in U87-CXCR4 s.c. tumors (in words)” value in data set [6] is recorded as “accumulated highest”. Moreover, in data set [7], the “PET imaging of CXCR4 expression in intracranial U87-CXCR4 tumors” value is “unsuccessful; also recorded: Very low levels of radioactivity were visualized”. Moreover, the “localization of radioactivity after spinal-CSF injection” value in data set [8] (autoradiography with CXCR4 IHC and H&E, PET 1 and 24 h post injection) is on record as “not localized to CXCR4-expressing tumor”. In addition, the “PET imaging of CXCR4 expression in intracranial PCNSL #15 tumors” value in data set [8] (i.v. or spinal-CSF injection) was “unsuccessful”.

For the molecule `[76Br]c1cc(CN2CCCNCCNCCCNCC2)ccc1CNCc1ccccn1` [^76Br-HZ270-2], in data set [5], the “Biodistribution, Blood” value was determined as 1.6 ± 0.5 %ID/g; the “Biodistribution, Bone” value came out at 1.9 ± 0.6 %ID/g; the “Biodistribution, Brain” value is reported as 0.53 ± 0.01 %ID/g; the “Biodistribution, Heart” value worked out at 2.3 ± 0.4 %ID/g. In data set [5], the “Biodistribution, Kidneys” value was 53.7 ± 12.6 %ID/g; the “Biodistribution, Liver” value was 15.3 ± 3.5 %ID/g; the “Biodistribution, Spleen” value is 2.5 ± 0.2 %ID/g; the “Biodistribution, U87 CXCR4 tumor” value was 4.8 ± 1.6 %ID/g. In data set [5], the “Biodistribution, U87 WT tumor” value is 1.5 ± 0.2 %ID/g.

On to `[124I]c1cc(CN2CCCNCCNCCCNCC2)ccc1CN1CCCNCCNCCCNCC1` [^124I-HZ262], for which the “in vivo de-halogenation / stability on PET imaging” value in data set [6] is on record as “greater in vivo stability”; in data set [6] (listed as 124I-AMD3100), “no in vivo de-iodination”.

For `[124I]c1cc(CNCc2ccccn2)ccc1CN1CCCNCCNCCCNCC1` [^124I-HZ271-1], in data set [5], the “Biodistribution, Blood” value was 1.5 ± .05 %ID/g; the “Biodistribution, Bone” value is reported as 0.99 ± 0.33 %ID/g; the “Biodistribution, Brain” value worked out at 0.07 ± 0.04 %ID/g; the “Biodistribution, H69 tumor” value turned out to be 2.3 ± 0.2 %ID/g. For the same molecule, in data set [5], the “Biodistribution, H82 tumor” value turned out to be 1.1 ± 1.0 %ID/g; the “Biodistribution, Heart” value came to 2.0 ± 0.4 %ID/g; the “Biodistribution, Kidneys” value is on record as 45.0 ± 5.7 %ID/g; the “Biodistribution, Liver” value came to 30 ± 23 %ID/g. Also, in data set [5], the “Biodistribution, Lungs” value was 2.3 ± 1.4 %ID/g; the “Biodistribution, Spleen” value is on record as 1.3 ± 0.7 %ID/g; the “Biodistribution, U87 CXCR4 tumor” value came to 2.0 ± 0.3 %ID/g; the “Biodistribution, U87 WT tumor” value is recorded as 0.96 ± 0.21 %ID/g. Further, the “in vivo de-halogenation / stability on PET imaging” value in data set [6] is on record as “significant decomposition in vivo”.

As for `[131I]c1cc(CN2CCCNCCNCCCNCC2)ccc1CN1CCCNCCNCCCNCC1` [^131I-HZ262], in data set [3], the U87-CXCR4/U87-wt uptake ratio came to 3.19 ± 1.02 and the “radiotracer accumulation in U87-CXCR4 vs U87-WT cells (in words)” value is recorded as “highest”. Besides, in data set [4], the H69/H82 uptake ratio was 3.81 ± 0.40 and the “radiotracer accumulation in H69 vs H82 cells (in words)” value was “highest”. Also, the “accumulation in U87-CXCR4 s.c. tumors (in words)” value in data set [6] is on record as “accumulated highest”.

By IC50 is commonly meant the concentration needed to halve the response being measured.
